Data on 10 molecules can be found in ChEMBL document CHEMBL1201862, “PubChem BioAssay data set” (2004).

Some test systems named below: K562; NCI/ADR-RES; ACHN; SF-268; Hs-578T; T47D; DU-145; SW-620; BT-549; RXF 393; UACC-257; SK-MEL-2; IGROV-1; MDA-MB-435; SNB-19; LOX IMVI; SNB-75; HCT-116; MDA-MB-231; HT-29.
What all share (test): growth of human tumour cells (NCI), 48 h

The structures appear in SMILES notation.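 Where inhibition never reached the appropriate level, the endpoint shown equals the highest concentration tested. Otherwise, values were interpolated linearly from a five-concentration, 48-hour dose response in 96-well plates. GI50 marks 50% less growth.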 The source made the active and inactive calls. No stated cut-off is given here; in the data, active = GI50 up to about 1.1 µM and inactive = higher.

For `COc1c(O)ccc2c1CN1CCc3cc4c(cc3C1C2)OCO4` (stereo not given), the GI50 is 20 µM (inactive) in the assay with K562; 20.9 µM (inactive) with NCI/ADR-RES; 16.3 µM (inactive) in the assay with ACHN; 37 µM (inactive) with SF-268; 27.4 µM (inactive) in the assay with Hs-578T; 20.9 µM (inactive) with T47D. In addition, the GI50 in the assay on DU-145 is 21.8 µM (inactive); with SW-620, 29.9 µM (inactive); in the assay on BT-549, 28.2 µM (inactive); in the assay on RXF 393 it was 12.6 µM (inactive); with UACC-257, 31 µM (inactive); in the assay on SK-MEL-2, 30.6 µM (inactive). Besides, the GI50 with IGROV-1 is 28.6 µM (inactive); with MDA-MB-435 it was 21.8 µM (inactive); in the assay with SNB-19, 31.3 µM (inactive); in the assay on LOX IMVI, 22.8 µM (inactive); in the assay with SNB-75, 14.5 µM (inactive); in the assay with HCT-116 it was 24 µM (inactive). Also, the GI50 is 29.3 µM (inactive) in the assay on MDA-MB-231 and 32.7 µM (inactive) in the assay with HT-29.

Regarding `CN/C(=N\N=C1/C(=O)Nc2ccccc21)SCC(=O)c1ccc(Br)cc1`, the GI50 with K562 was 20.5 µM (inactive); in the assay on NCI/ADR-RES, 6.9 µM (inactive); with ACHN, 15.5 µM (inactive); with SF-268, 18.6 µM (inactive); in the assay on Hs-578T it was 10.9 µM (inactive); with T47D, 9.48 µM (inactive). For the same molecule, the GI50 in the assay on DU-145 is 6.82 µM (inactive); in the assay on SW-620 it was 2.42 µM (inactive); with BT-549, 68.1 µM (inactive); in the assay on RXF 393 it was 5.04 µM (inactive); with UACC-257, 7.66 µM (inactive); with SK-MEL-2 it was 50 µM (inactive). For the same molecule, the GI50 in the assay on IGROV-1 was 31.1 µM (inactive); in the assay on MDA-MB-435, 9.57 µM (inactive); with SNB-19 it was 32.4 µM (inactive); in the assay with LOX IMVI, 8.38 µM (inactive); with SNB-75, 8.47 µM (inactive); with HCT-116, 4.53 µM (inactive). Also, the GI50 is 5.81 µM (inactive) with MDA-MB-231 and 8.59 µM (inactive) with HT-29.

For `Cc1ccc(/N=C/C=C(\Nc2ccc(C)cc2)c2ccc3ccccc3c2)cc1`, the GI50 with K562 was 0.414 µM (active); in the assay with NCI/ADR-RES, 0.445 µM (active); in the assay on ACHN, 0.671 µM (active); with SF-268, 2.19 µM (inactive); with Hs-578T it was 0.753 µM (active); in the assay with T47D it was 1.41 µM (inactive). The GI50 in the assay with DU-145 is 1.15 µM (inactive); in the assay on SW-620, 0.445 µM (active); with BT-549 it was 2.33 µM (inactive); with RXF 393, 0.521 µM (active); in the assay with UACC-257 it was 0.501 µM (active); in the assay with SK-MEL-2 it was 0.938 µM (active). For the same molecule, the GI50 in the assay with IGROV-1 is 0.541 µM (active); in the assay on MDA-MB-435, 0.203 µM (active); in the assay with SNB-19, 1.68 µM (inactive); in the assay on LOX IMVI, 0.456 µM (active); in the assay on SNB-75 it was 0.468 µM (active); with HCT-116 it was 0.434 µM (active). In addition, the GI50 was 0.388 µM (active) with MDA-MB-231 and 0.347 µM (active) in the assay with HT-29.

Take `COc1cc2oc(=O)cc(C)c2cc1O`: the GI50 is > 100 µM (inactive) in the assay on K562; > 100 µM (inactive) in the assay on NCI/ADR-RES; > 100 µM (inactive) in the assay on ACHN; > 100 µM (inactive) in the assay on SF-268; > 100 µM (inactive) in the assay with Hs-578T; 41 µM (inactive) in the assay with T47D. Further, the GI50 in the assay with DU-145, in the assay on SW-620, with BT-549, with RXF 393, in the assay with UACC-257 and with SK-MEL-2 was > 100 µM (inactive) in each case. In addition, the GI50 with IGROV-1, in the assay on MDA-MB-435, in the assay on SNB-19, in the assay with LOX IMVI, with SNB-75 and in the assay with HCT-116 was > 100 µM (inactive) in each case. In addition, the GI50 with MDA-MB-231 and in the assay on HT-29 was > 100 µM (inactive) in each case.

`O=C1CCCc2ccc3c(c21)CC1(Cc2cc4c(cc2C1)CCCC4)C3`: the GI50 with K562 is 6.49 µM (inactive); in the assay on NCI/ADR-RES it was 25.9 µM (inactive); in the assay on ACHN it was 16.1 µM (inactive); in the assay on SF-268, 29 µM (inactive); in the assay with Hs-578T, 30.4 µM (inactive); in the assay with T47D, 5.38 µM (inactive). Further, the GI50 in the assay with DU-145 is 20.9 µM (inactive); in the assay with SW-620, 16 µM (inactive); with BT-549, 25.1 µM (inactive); with RXF 393, 15.6 µM (inactive); in the assay on UACC-257, 18.5 µM (inactive); in the assay on SK-MEL-2, 21.2 µM (inactive). In addition, the GI50 in the assay with IGROV-1 was 24.7 µM (inactive); in the assay on MDA-MB-435, 19.6 µM (inactive); in the assay with SNB-19, 26.6 µM (inactive); with LOX IMVI it was 14.6 µM (inactive); in the assay with SNB-75, 20.7 µM (inactive); in the assay on HCT-116, 16.1 µM (inactive). The GI50 in the assay with MDA-MB-231 is 15.5 µM (inactive); in the assay with HT-29, 18.4 µM (inactive).

Regarding `CN(C)C(=S)/N=c1\ssc(=S)n1Cc1ccccc1`, the GI50 in the assay with K562 was 0.206 µM (active); with NCI/ADR-RES, 0.119 µM (active); in the assay with ACHN it was 0.807 µM (active); with SF-268 it was 1.82 µM (inactive); in the assay with Hs-578T, 0.193 µM (active); in the assay on T47D, 6.31 µM (inactive). Besides, the GI50 in the assay on DU-145 is 1.79 µM (inactive); with SW-620 it was 0.201 µM (active); with BT-549 it was > 100 µM (inactive); in the assay on RXF 393, 0.172 µM (active); in the assay with UACC-257, 0.43 µM (active); in the assay on SK-MEL-2, 0.365 µM (active). Further, the GI50 with IGROV-1 is 0.632 µM (active); in the assay with MDA-MB-435, 0.0337 µM (active); with SNB-19, 1.08 µM (active); in the assay on LOX IMVI, 0.455 µM (active); with SNB-75, 0.203 µM (active); with HCT-116, 0.344 µM (active). The GI50 in the assay with MDA-MB-231 was 0.631 µM (active); in the assay on HT-29, 0.308 µM (active).

`CCC1(CC)C(=O)N(C(=O)c2ccc(C)cc2)N(C(=O)c2ccc(C)cc2)C1=O`: the GI50 is 40 µM (inactive) in the assay with K562; 34.2 µM (inactive) in the assay on NCI/ADR-RES; 26.8 µM (inactive) in the assay on ACHN; 27.7 µM (inactive) in the assay with SF-268; > 75 µM (inactive) in the assay on Hs-578T; 36.1 µM (inactive) in the assay with T47D. Also, the GI50 is > 75 µM (inactive) in the assay with DU-145; 29.8 µM (inactive) in the assay on SW-620; > 75 µM (inactive) in the assay on BT-549; > 75 µM (inactive) with RXF 393; > 75 µM (inactive) with UACC-257; > 75 µM (inactive) in the assay on SK-MEL-2. For the same molecule, the GI50 in the assay on IGROV-1 is 48.9 µM (inactive); with MDA-MB-435, > 75 µM (inactive); in the assay on SNB-19 it was > 75 µM (inactive); in the assay on LOX IMVI, 33.2 µM (inactive); in the assay on SNB-75 it was 14.4 µM (inactive); in the assay on HCT-116, 32.2 µM (inactive). Besides, the GI50 in the assay with MDA-MB-231 and with HT-29 was > 75 µM (inactive) in each case.

As to `CCOC(=O)C(Cc1ccc(O)cc1)Nc1nc(=O)c2c(=O)oc(Cl)cc2o1` (stereo not given), the GI50 in the assay with K562 was 3.06 µM (inactive); in the assay with NCI/ADR-RES it was 20.9 µM (inactive); in the assay with ACHN it was 12.2 µM (inactive); with SF-268 it was 3.82 µM (inactive); in the assay with Hs-578T, 3.07 µM (inactive); in the assay on T47D it was 4.61 µM (inactive). Also, the GI50 with DU-145 was 17.3 µM (inactive); with SW-620, 3.18 µM (inactive); with BT-549, 2.47 µM (inactive); with RXF 393 it was 4.38 µM (inactive); with UACC-257 it was 8 µM (inactive); in the assay on SK-MEL-2, 12.5 µM (inactive). Further, the GI50 with IGROV-1 is 5.09 µM (inactive); with MDA-MB-435, 4.52 µM (inactive); in the assay on SNB-19, 10.8 µM (inactive); in the assay with LOX IMVI it was 4.62 µM (inactive); in the assay on SNB-75, 4.91 µM (inactive); with HCT-116, 6.38 µM (inactive). Further, the GI50 in the assay on MDA-MB-231 is 6.1 µM (inactive); in the assay on HT-29, 3.52 µM (inactive).

Consider `COc1cc(CNC(=O)CCCCCCCCCCSSCCCCCCCCCCC(=O)NCc2ccc(O)c(OC)c2)ccc1O`, for which the GI50 with K562, with NCI/ADR-RES, in the assay with ACHN, in the assay on SF-268, in the assay with Hs-578T and in the assay with T47D was > 10 µM (inactive) in each case. Also, the GI50 with DU-145 was > 10 µM (inactive); in the assay on SW-620 it was > 10 µM (inactive); with BT-549, > 10 µM (inactive); in the assay with RXF 393, 0.184 µM (active); with UACC-257, > 10 µM (inactive); with SK-MEL-2, > 10 µM (inactive). Moreover, the GI50 in the assay on IGROV-1, in the assay with MDA-MB-435, with SNB-19, with LOX IMVI, in the assay on SNB-75 and with HCT-116 was > 10 µM (inactive) in each case. Moreover, the GI50 with MDA-MB-231 and with HT-29 was > 10 µM (inactive) each time.

On to `CC1=C2C(=O)c3ccccc3C(=O)[C@H]2[C@H]2CCO[C@H]2O1`, for which the GI50 in the assay on K562 was 27.4 µM (inactive); in the assay on NCI/ADR-RES, 27 µM (inactive); in the assay with ACHN, 20.9 µM (inactive); in the assay on SF-268, 17.7 µM (inactive); with Hs-578T, 41.7 µM (inactive); in the assay on T47D it was 34.7 µM (inactive). Also, the GI50 with DU-145 was 22.3 µM (inactive); in the assay with SW-620, 21.1 µM (inactive); in the assay on BT-549, 13.3 µM (inactive); in the assay on RXF 393 it was 14.4 µM (inactive); in the assay on UACC-257, 18.5 µM (inactive); with SK-MEL-2, 18.8 µM (inactive). In addition, the GI50 in the assay on IGROV-1 is 14.2 µM (inactive); in the assay on MDA-MB-435, 20.7 µM (inactive); in the assay on SNB-19 it was 37 µM (inactive); in the assay on LOX IMVI, 22.3 µM (inactive); in the assay with SNB-75, 19.8 µM (inactive); in the assay with HCT-116, 23.8 µM (inactive). The GI50 in the assay with MDA-MB-231 is 24.2 µM (inactive); in the assay with HT-29, 31.2 µM (inactive).
